The values that follow come from patent US12043602B2, “Fendiline derivatives” (The Board of Regents of the University of Texas System, priority 2019, dated 2024).

By IC50 is commonly meant the concentration that gives 50% inhibition.

The subject of data set [1] is MDCK cells co-expressing GFP-K-RASG12V and mCherry-CAAX. Put plainly: Cytotoxicity in mislocalization screen (death of all cells in well). The following applies: drug caused death of all cells in well at 30 μM.
Another data set addresses mGFP-K-RASG12V (Homo sapiens (Human), UniProt P01116, G12V). Kind of data set: K-Ras mislocalization assay (confocal microscopy, Manders coefficient). The following applies: for IC50 / Emax: MDCK cells; for IC50: 48 h treatment, read-out: IC50 (μM), KRASG12V mislocalization; for Emax: maximal effect, Manders coefficient, 48 h. Type of data set: cell-based. Set-up: key to Emax: Manders coefficient: fraction of mCherry-CAAX co-localizing with GFP-K-Ras. As to the method: Madine Darby Canine Kidney epithelial cells (MDCK) stably co-expressing mGFP-tagged full length oncogenic mutant K-Ras (GFP—K-RASG12V) or mGFP-LactC2 (peptide probe for phosphatidylserine) and mCherry-tagged to the amino acids 179-189 of H-RasC181S, C184S (mCherry-CAAX, localizes primarily to endomembranes) were grown in DMEM-high glucose/sodium pyruvate/10% FBS. The medium was supplemented with 1× Penicillin/Streptomycin for fluorescence microscopy assays, to avoid any microbial contamination from the test compounds added. KLE and Hec50 cells were maintained in DMEM-F-12 medium supplemented with 10% FBS. Hec-1A and Hec-1B cells were grown in McCoy's 5a medium supplemented with 10% FBS. ESS-1 cells were grown in RPMI 1640 medium supplemented with 20% FBS. MPanc96 cells were grown in DMEM supplemented with 10% FBS, MiaPaCa-2 cells in DMEM supplemented with 10% FBS and 2.5% horse serum and all other cell lines were grown in RPMI 1640 supplemented with 10% FBS. All cancer cell media were supplemented with ×Penicillin/Streptomycin. All cell lines were grown at 37° C. with 5% CO2.
MDCK co-expressing GFP—K-RASG12V or LactC2 and mCherry-CAAX were grown on coverslips, treated with 0.1% vehicle (DMSO) or various concentrations of drugs for 48 h, and fixed with 4% paraformaldehyde. The coverslips were mounted in mowiol and imaged by confocal microscopy (Nikon A1) using a 60× objective. Using ImageJ software v1.42q, images were converted to 8-bit, and a threshold to a control pixel of each image was set. As a measure of K-Ras/LactC2 mislocalization, the fraction of mCherry-CAAX co-localizing with mGFP-K-RASG12V was calculated using a Manders coefficient plugin downloaded from Wright Cell Image Facility. The fraction of mCherry-CAAX co-localizing with mGFP-RASG12V (Mander's coefficient) is proportional to K-Ras mislocalization.

SMILES strings stand for the structures. “And” between values parts separate entries of the source, which are not always exact repeats. Identical values can stand only once. Like-named read-outs stand apart in the source and are kept apart here.

As to `COc1ccc([C@@H](C)N(CC=C(c2ccccc2)c2ccccc2)CCN2CCCCC2)cc1` [NY329, (R)-N-(1-(4-methoxyphenyl)ethyl)-3,3-diphenyl-N-(2-(piperidin-1-yl)ethyl)prop-2-en-1-amine], in data set [1], the “Cytotoxic at 30 μM” value was “Yes”. Also, at mGFP-K-RASG12V, the IC50 is 0.6 µM and the Emax stood at 0.83 ± 0.02.

In the case of `COc1ccc([C@@H](C)N(CC=C(c2ccccc2)c2ccccc2)CCN2CCN(C(=O)OC(C)(C)C)CC2)cc1` [NY345, (R)-tert-butyl 4-(2-((3,3-diphenylallyl)(1-(4-methoxyphenyl)ethyl)amino)ethyl) piperazine-1-carboxylate], the “Cytotoxic at 30 μM” value in data set [1] is on record as “No”. Besides, at mGFP-K-RASG12V, the IC50 is 0.329 µM and the Emax is on record as 0.819.

With `COc1ccc([C@@H](C)N(C/C=C/c2ccccc2)CCN2CCN(C)CC2)cc1` [NY346, (R,E)-N-(1-(4-methoxyphenyl)ethyl)-N-(2-(4-methylpiperazin-1-yl)ethyl)-3-phenylprop-2-en-1-amine], in data set [1], the “Cytotoxic at 30 μM” value was “No”. Further, on mGFP-K-RASG12V, the “KRAS PM localization inhibition activity (in words)” value is “complete loss of in vitro activity”, the IC50 amounted to 14.8 µM and the Emax came out at 0.84 ± 0.01.

For the compound `COc1ccc([C@@H](C)N(CC=C(c2ccccc2)c2ccccc2)CCN2CCNCC2)cc1` [NY347, (R)-N-(1-(4-methoxyphenyl)ethyl)-3,3-diphenyl-N-(2-(piperazin-1-yl)ethyl)prop-2-en-1-amine], the “Cytotoxic at 30 μM” value in data set [1] is on record as “Yes”; in data set [1] (listed as 12e), “cytotoxicity”. The IC50 at mGFP-K-RASG12V worked out at 1.3 µM. In addition, the Emax at mGFP-K-RASG12V was found to be 0.86 ± 0.02; at mGFP-K-RASG12V (listed as 12e) it was 0.90.

As for `CCOC(CCCN(CC=C(c1ccccc1)c1ccccc1)[C@H](C)c1ccc(OC)cc1)OCC` [NY348, (R)-N-(3,3-diphenylallyl)-4,4-diethoxy-N-(1-(4-methoxyphenyl)ethyl)butan-1-amine], in data set [1], the “Cytotoxic at 30 μM” value is “No”. On mGFP-K-RASG12V, the IC50 worked out at 5.47 µM and the Emax is 0.963.

Regarding `C=CCN(CCN1CCN(C)CC1)[C@H](C)c1ccc(OC)cc1` [NY349, (R)-N-(1-(4-methoxyphenyl)ethyl)-N-(2-(4-methylpiperazin-1-yl)ethyl)prop-2-en-1-amine], the “Cytotoxic at 30 μM” value in data set [1] is recorded as “No”. Moreover, on mGFP-K-RASG12V, the “KRAS PM localization inhibition activity (in words)” value is given as “complete loss of in vitro activity”, the IC50 worked out at 59.3 µM and the Emax is 0.76 ± 0.02.

For `COc1ccc([C@@H](C)N(CC=C(c2ccccc2)c2ccccc2)CCN2CCN(C(C)=O)CC2)cc1` [NY350, (R)-1-(4-(2-((3,3-diphenylallyl)(1-(4-methoxyphenyl)ethyl)amino)ethyl)piperazin-1-yl)ethanone], the “Cytotoxic at 30 μM” value in data set [1] is reported as “No”. The compound also came in with an Emax on mGFP-K-RASG12V of 0.877.

Take `COc1ccc([C@@H](C)N(CC=C(c2ccccc2)c2ccccc2)CCN2CCN(S(C)(=O)=O)CC2)cc1` [NY351, (R)-N-(1-(4-methoxyphenyl)ethyl)-N-(2-(4-(methylsulfonyl)piperazin-1-yl)ethyl)-3,3-diphenylprop-2-en-1-amine]: the “Cytotoxic at 30 μM” value in data set [1] was “No”. Besides, on mGFP-K-RASG12V, the concentration for half-maximal inhibition (IC50) came to 1.11 µM and the Emax stood at 0.851.

For `COc1ccc([C@@H](C)N(CC=C(c2ccccc2)c2ccccc2)CCN2CCN(C(=O)Nc3ccccc3)CC2)cc1` [NY352, (R)-4-(2-((3,3-diphenylallyl)(1-(4-methoxyphenyl)ethyl)amino)ethyl)-N-phenylpiperazine-1-carboxamide], in data set [1], the “Cytotoxic at 30 μM” value was “Yes”. On mGFP-K-RASG12V, the IC50 amounted to 1.68 µM and the Emax was determined as 0.920.

`COc1ccc([C@@H](C)N(CC=C(c2ccccc2)c2ccccc2)CCN2CCN(C(=O)Oc3ccccc3)CC2)cc1` [NY353, (R)-phenyl 4-(2-((3,3-diphenylallyl)(1-(4-methoxyphenyl)ethyl)amino)ethyl) piperazine-1-carboxylate]: the “Cytotoxic at 30 μM” value in data set [1] is “No”. Also, at mGFP-K-RASG12V, the IC50 was 3.26 µM and the Emax worked out at 0.920.

`C#CCN1CCN(CCN(CC=C(c2ccccc2)c2ccccc2)[C@H](C)c2ccc(OC)cc2)CC1` [NY356, (R)-N-(1-(4-methoxyphenyl)ethyl)-3,3-diphenyl-N-(2-(4-(prop-2-ynyl)piperazin-1-yl)ethyl)prop-2-en-1-amine]: in data set [1], the “Cytotoxic at 30 μM” value is given as “No”. Besides, on mGFP-K-RASG12V, the IC50 was found to be 4.19 µM and the Emax came out at 0.886.

For the compound `C=CC(=O)N1CCN(CCN(CC=C(c2ccccc2)c2ccccc2)[C@H](C)c2ccc(OC)cc2)CC1` [NY0357a, (R)-1-(4-(2-((3,3-diphenylallyl)(1-(4-methoxyphenyl)ethyl)amino)ethyl)piperazin-1-yl)prop-2-en-1-one], in data set [1], the “Cytotoxic at 30 μM” value is recorded as “Yes”. On mGFP-K-RASG12V, the IC50 turned out to be 2.55 µM and the Emax worked out at 0.697.

As for `CCN(CC)CCN(CC=C(c1ccccc1)c1ccccc1)[C@H](C)c1ccc(OC)cc1` [NY0358, (R)-N^1-(3,3-diphenylallyl)-N^2,N^2-diethyl-N^1-(1-(4-methoxyphenyl)ethyl)ethane-1,2-diamine], the “Cytotoxic at 30 μM” value in data set [1] is “Yes”. For the same compound, at mGFP-K-RASG12V, the IC50 was 1.15 µM and 1.2 µM; the Emax turned out to be 0.887. At mGFP-K-RASG12V (listed as 12b), this compound came in with an Emax of 0.89 ± 0.01.

In the case of `COc1ccccc1[C@@H](C)N(CC=C(c1ccccc1)c1ccccc1)CCN1CCN(C)CC1` [NY0366, (R)-N-(1-(2-methoxyphenyl)ethyl)-N-(2-(4-methylpiperazin-1-yl)ethyl)-3,3-diphenylprop-2-en-1-amine], the “Cytotoxic at 30 μM” value in data set [1] was “Yes”. Also, the IC50 came to 3.8 µM on mGFP-K-RASG12V (listed as 15b) and 3.81 µM at mGFP-K-RASG12V. In addition, the Emax at mGFP-K-RASG12V is recorded as 0.861; on mGFP-K-RASG12V (listed as 15b), 0.86 ± 0.01.

In the case of `CN1CCN(CCN(CC=C(c2ccccc2)c2ccccc2)[C@@H]2CCc3ccccc32)CC1` [NY0369b, (R)-N-(3,3-diphenylallyl)-N-(2-(4-methylpiperazin-1-yl)ethyl)-2,3-dihydro-1H-inden-1-amine], in data set [1], the “Cytotoxic at 30 μM” value was “Yes”. Also, on mGFP-K-RASG12V, the IC50 was 90.1 µM and the Emax worked out at 0.866.

On to `C[C@H](c1cccc(Cl)c1)N(CC=C(c1ccccc1)c1ccccc1)CCN1CCN(C)CC1` [NY0370b, (R)-N-(1-(3-chlorophenyl)ethyl)-N-(2-(4-methylpiperazin-1-yl)ethyl)-3,3-diphenylprop-2-en-1-amine], for which the “Cytotoxic at 30 μM” value in data set [1] is “Yes”. Further, at mGFP-K-RASG12V, the IC50 was 11.2 µM and the Emax was found to be 0.767. At mGFP-K-RASG12V (listed as 15g), the Emax came to 0.77 ± 0.07.

On to `COc1ccc([C@@H](C)N(CC=C(c2ccccc2)c2ccccc2)CCN2CCN(CC(C)C)CC2)cc1` [NY0372, (R)-N-(2-(4-isobutylpiperazin-1-yl)ethyl)-N-(1-(4-methoxyphenyl)ethyl)-3,3-diphenylprop-2-en-1-amine], for which, in data set [1], the “Cytotoxic at 30 μM” value was “No”. Besides, at mGFP-K-RASG12V, the concentration for half-maximal inhibition (IC50) was 16.4 µM and the Emax is listed as 0.868.

`CCN(CC=C(c1ccccc1)c1ccccc1)[C@H](C)c1ccc(OC)cc1` [NY0429, (R)-N-ethyl-N-(1-(4-methoxyphenyl)ethyl)-3,3-diphenylprop-2-en-1-amine]: the “Cytotoxic at 30 μM” value in data set [1] is given as “No”. The IC50 at mGFP-K-RASG12V (listed as 11b) and on mGFP-K-RASG12V was 10.6 µM in each case. For the same compound, the Emax on mGFP-K-RASG12V stood at 0.835; at mGFP-K-RASG12V (listed as 11b) it was 0.84 ± 0.02.

`CCN(CC=C(c1ccccc1)c1ccccc1)[C@@H](C)c1ccc(OC)cc1` [NY0431]: the “Cytotoxic at 30 μM” value in data set [1] was “No”. Moreover, at mGFP-K-RASG12V, the IC50 is 2.91 µM and the Emax was 0.756.

For the compound `COc1ccc([C@H](C)N(CC=C(c2ccccc2)c2ccccc2)CCN(C)C)cc1` [NY0434], the “Cytotoxic at 30 μM” value in data set [1] is “No”. For the same compound, at mGFP-K-RASG12V, the IC50 came to 4.69 µM and the Emax stood at 0.835.
